Results: patent US20030204063A1, “Modified biological peptides with increased potency” (priority 2003, published 2003)

System: CD1 mice
Experiment: Oral Glucose Tolerance Test (OGTT)
Format: in vivo
Conditions: for integrated increase in blood glucose (area under the curve of delta blood glucose) over 120 min following glucose administration: fasted female CD1 mice, mean±SEM
Experimental: Oral Glucose Tolerance Test (OGTT)
Six-week old female CD1 mice (Charles River) were fasted for at least 16 hours. Mice were given 1.5 mg of glucose per gram of body weight orally in water through a gastric savage tube at t=o min and blood was collected from a tail vein at t=0, 10, 20, 30, 60, 90 and 120 min for measurement of blood glucose using a glucose meter (Lifescan). Peptides or vehicle were injected subcutaneously 5 min prior to the glucose administration. Data were expressed as the area under the curve, calculated from the change (delta) in blood glucose for each time, using the trapezoidal rule. Therefore, the data represent the integrated increase in blood glucose over a 120 min period following glucose administration. Data presented are the mean±SEM of 4 to 11 animals per group.
All peptides, including wild-type GLP-1 (7-37), were tested in the OGTT test at 3 different concentrations: 1, 5 and 10 ug per mouse. In a first set of experiments (study A), peptide 3 was tested in comparison with vehicle and hGLP-1(7-37). In a second set of experiments (study B), peptides 1 and 2 were tested in comparison with vehicle and hGLP-1 (7-37).

[1] = studies A and B, 1, 5 and 10 ug per mouse subcutaneously

In the case of “hGLP(7-37) (HAEGTFTSDVSSYLEGQAAKEFIAWLVKGRG; Glucagon-like peptide 1; UniProt P01275 98-128, looked up, fragment) [wt GLP-1, wild type human glucagon-like peptide 1 (7-37), comparator in the OGTT, reference compound]”, the “ability to completely suppress the glucose response (in words)” value [1] is reported as “not able to completely suppress the glucose response at any dose” and the “effect on the glucose response (in words)” value [1] is reported as “dose-related decrease in the glucose response”.
With “(Hexanoyl-trans-3-His^7)-hGLP-1 (7-37) [peptide 3]” the “integrated increase in blood glucose (area under the curve of delta blood glucose) over 120 min following glucose administration” value (study A, 10 ug per mouse subcutaneously 5 min prior to oral glucose 1.5 mg/g) was 9±26 mM×120 min.
With “((+,−)-cis-2-Ethylcyclopropylacetic acid-His^7)-hGLP-1 (7-37) [peptide 2]” the “integrated increase in blood glucose (area under the curve of delta blood glucose) over 120 min following glucose administration” value (study B, 5 ug per mouse subcutaneously 5 min prior to oral glucose 1.5 mg/g) was −17±67 mM×120 min, the “integrated increase in blood glucose (area under the curve of delta blood glucose) over 120 min following glucose administration” value (study B, 10 ug per mouse subcutaneously 5 min prior to oral glucose 1.5 mg/g) was 61±64 mM×120 min and the “biological potency compared with wild type GLP-1 (7-37) (in words)” value (study B, OGTT, subcutaneous) was “marked increased biological potency”.
